Laboratory results reported in paper PMC8185074, “Anchor extension: a structure-guided approach to design cyclic peptides targeting enzyme active sites” (Nature Communications, 2021).
Peptide text beside a SMILES is read from it.

Columns and labels:
Assay type in all cases: biochemical
HDAC3 = target: T1, HDAC3 (Homo sapiens, UniProt O15379); experiment: HDAC3 inhibition, full IC50 measurement (Reaction Biology; fluorogenic p53 peptide RHKK(Ac)AMC)
T1 construct: purchased Reaction Biology Corporation (assay run by the CRO)
Outline: (§1)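 Reaction: enzyme plus acoustically dispensed peptide inhibitor, 50 μM RHKK(Ac)AMC substrate, pH 8.0 Tris buffer with BSA and 1% DMSO, 1 h, 30 °C. Duplicates averaged.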

HDAC6 = target: T2, HDAC6 (Homo sapiens, UniProt Q9UBN7); experiment: HDAC6 inhibition, full IC50 measurement (Reaction Biology; fluorogenic p53 peptide RHKK(Ac)AMC)
T2 construct: purchased Reaction Biology Corporation (assay run by the CRO)
T2 sequence (Q9UBN7 1-1215): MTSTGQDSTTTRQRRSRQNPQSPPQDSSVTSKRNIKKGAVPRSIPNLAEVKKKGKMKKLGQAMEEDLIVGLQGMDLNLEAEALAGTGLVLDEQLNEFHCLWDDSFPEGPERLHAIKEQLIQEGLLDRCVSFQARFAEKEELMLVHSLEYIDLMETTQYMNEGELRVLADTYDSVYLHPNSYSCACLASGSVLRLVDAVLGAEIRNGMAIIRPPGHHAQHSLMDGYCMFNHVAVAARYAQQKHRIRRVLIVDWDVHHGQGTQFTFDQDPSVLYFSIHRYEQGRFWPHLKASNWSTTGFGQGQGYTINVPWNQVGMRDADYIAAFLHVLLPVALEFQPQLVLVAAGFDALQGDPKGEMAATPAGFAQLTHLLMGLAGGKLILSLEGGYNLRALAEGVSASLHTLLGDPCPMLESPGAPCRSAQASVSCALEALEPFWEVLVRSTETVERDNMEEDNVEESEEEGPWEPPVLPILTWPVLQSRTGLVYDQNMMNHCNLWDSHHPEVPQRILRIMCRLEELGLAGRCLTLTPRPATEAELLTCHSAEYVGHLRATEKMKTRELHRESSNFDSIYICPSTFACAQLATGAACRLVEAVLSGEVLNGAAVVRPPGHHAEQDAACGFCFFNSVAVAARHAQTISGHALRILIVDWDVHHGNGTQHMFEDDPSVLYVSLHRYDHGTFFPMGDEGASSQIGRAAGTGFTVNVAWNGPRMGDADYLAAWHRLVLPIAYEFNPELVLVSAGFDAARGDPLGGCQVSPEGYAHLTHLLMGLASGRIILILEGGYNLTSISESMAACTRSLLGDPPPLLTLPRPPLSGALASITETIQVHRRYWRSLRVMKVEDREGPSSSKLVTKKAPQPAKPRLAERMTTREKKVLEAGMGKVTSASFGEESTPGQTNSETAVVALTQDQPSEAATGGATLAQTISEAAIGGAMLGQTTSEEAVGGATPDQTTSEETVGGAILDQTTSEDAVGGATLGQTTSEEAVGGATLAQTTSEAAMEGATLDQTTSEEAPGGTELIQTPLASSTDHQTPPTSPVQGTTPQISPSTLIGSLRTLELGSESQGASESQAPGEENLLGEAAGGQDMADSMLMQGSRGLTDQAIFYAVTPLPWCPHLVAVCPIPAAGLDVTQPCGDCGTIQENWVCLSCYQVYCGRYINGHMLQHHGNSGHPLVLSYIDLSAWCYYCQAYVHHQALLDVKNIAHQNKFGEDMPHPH
Outline: as §1

HDAC8 = target: T3, HDAC8 (Homo sapiens, UniProt Q9BY41); experiment: HDAC8 inhibition, full IC50 measurement (Reaction Biology; fluorogenic p53 peptide RHKK(Ac)AMC); settings: t1/t2 replicates
T3 construct: purchased Reaction Biology Corporation (assay run by the CRO)
T3 sequence (Q9BY41 1-377): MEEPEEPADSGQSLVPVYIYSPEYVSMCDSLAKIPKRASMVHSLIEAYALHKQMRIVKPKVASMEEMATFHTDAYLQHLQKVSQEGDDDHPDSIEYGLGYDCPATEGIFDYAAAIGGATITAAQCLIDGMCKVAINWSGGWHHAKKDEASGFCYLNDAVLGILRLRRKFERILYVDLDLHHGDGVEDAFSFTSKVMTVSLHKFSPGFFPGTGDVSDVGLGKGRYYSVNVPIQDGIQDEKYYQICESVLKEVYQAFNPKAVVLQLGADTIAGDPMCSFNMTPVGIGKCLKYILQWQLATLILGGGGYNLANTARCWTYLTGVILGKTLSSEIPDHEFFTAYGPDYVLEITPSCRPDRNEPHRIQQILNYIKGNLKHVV
Outline: as §1

T1 sequence (O15379 whole entry): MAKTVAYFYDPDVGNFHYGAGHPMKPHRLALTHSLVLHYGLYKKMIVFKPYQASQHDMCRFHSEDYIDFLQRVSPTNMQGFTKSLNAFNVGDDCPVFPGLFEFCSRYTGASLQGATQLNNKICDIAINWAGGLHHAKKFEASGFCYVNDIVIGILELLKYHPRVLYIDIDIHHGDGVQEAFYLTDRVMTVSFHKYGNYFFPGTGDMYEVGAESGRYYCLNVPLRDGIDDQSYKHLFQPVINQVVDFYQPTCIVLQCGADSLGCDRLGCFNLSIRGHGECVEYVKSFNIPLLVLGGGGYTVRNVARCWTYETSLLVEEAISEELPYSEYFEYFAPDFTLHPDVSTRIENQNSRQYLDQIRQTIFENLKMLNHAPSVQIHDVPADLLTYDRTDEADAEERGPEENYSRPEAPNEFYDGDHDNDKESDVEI
T1 sequence (Q9Y618 395-489 partner limits assumed): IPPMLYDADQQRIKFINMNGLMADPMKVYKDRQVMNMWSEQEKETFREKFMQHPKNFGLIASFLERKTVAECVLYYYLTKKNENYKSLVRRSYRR

For NCCCC[C@@H]1NC(=O)[C@@H]2CCCN2C(=O)[C@H](CC(N)=O)NC(=O)[C@H](CCCCCS)NC(=O)CNC(=O)[C@H](Cc2c[nH]c3ccccc23)NC(=O)[C@@H](CCCCN)NC(=O)[C@H](CCC(N)=O)NC1=O [des1.1.0, SHA-Asn-Pro-Lys-Gln-dLys-Trp-Gly] (HELM PEPTIDE1{G.[O=C([C@H](CCCCCS)N[*:1])[*:2]].N.P.K.Q.[dK].W}$PEPTIDE1,PEPTIDE1,1:R1-8:R2$$$V2.0), the “HDAC3 activity raw data (signal)” value (HDAC3; Conc. 1.00E-05 M, t1) was 5471, the “HDAC3 activity raw data (signal)” value (HDAC3; Conc. 1.00E-05 M, t2) was 9474 and the “HDAC3 activity raw data (signal)” value (HDAC3; Conc. 1.11E-06 M, t1) was 58802. The “HDAC3 activity raw data (signal)” value (HDAC3; Conc. 1.11E-06 M, t2) was 66090, the “HDAC3 activity raw data (signal)” value (HDAC3; Conc. 1.23E-07 M, t1) was 406610 and the “HDAC3 activity raw data (signal)” value (HDAC3; Conc. 1.23E-07 M, t2) was 410292. The “HDAC3 activity raw data (signal)” value (HDAC3; Conc. 1.37E-08 M, t1) was 1181819, the “HDAC3 activity raw data (signal)” value (HDAC3; Conc. 1.37E-08 M, t2) was 1197870 and the “HDAC3 activity raw data (signal)” value (HDAC3; Conc. 1.52E-09 M, t1) was 1432990. The “HDAC3 activity raw data (signal)” value (HDAC3; Conc. 1.52E-09 M, t2) was 1448071, the “HDAC3 activity raw data (signal)” value (HDAC3; Conc. 3.33E-06 M, t1) was 23719 and the “HDAC3 activity raw data (signal)” value (HDAC3; Conc. 3.33E-06 M, t2) was 26034. The “HDAC3 activity raw data (signal)” value (HDAC3; Conc. 3.70E-07 M, t1) was 182063, the “HDAC3 activity raw data (signal)” value (HDAC3; Conc. 3.70E-07 M, t2) was 201749 and the “HDAC3 activity raw data (signal)” value (HDAC3; Conc. 4.12E-08 M, t1) was 761011. For the same molecule, the “HDAC3 activity raw data (signal)” value (HDAC3; Conc. 4.12E-08 M, t2) was 799167, the “HDAC3 activity raw data (signal)” value (HDAC3; Conc. 4.57E-09 M, t1) was 1249527 and the “HDAC3 activity raw data (signal)” value (HDAC3; Conc. 4.57E-09 M, t2) was 1277477. The “HDAC3 activity raw data (signal)” value (HDAC3; Conc. 5.08E-10 M, t1) was 1537856, the “HDAC3 activity raw data (signal)” value (HDAC3; Conc. 5.08E-10 M, t2) was 1472354 and the “HDAC6 activity raw data (signal)” value (HDAC6; Conc. 1.00E-05 M, t1) was 8262. For the same molecule, the “HDAC6 activity raw data (signal)” value (HDAC6; Conc. 1.00E-05 M, t2) was -132, the “HDAC6 activity raw data (signal)” value (HDAC6; Conc. 1.11E-06 M, t1) was 22357 and the “HDAC6 activity raw data (signal)” value (HDAC6; Conc. 1.11E-06 M, t2) was 16681. For the same molecule, the “HDAC6 activity raw data (signal)” value (HDAC6; Conc. 1.23E-07 M, t1) was 128420, the “HDAC6 activity raw data (signal)” value (HDAC6; Conc. 1.23E-07 M, t2) was 107875 and the “HDAC6 activity raw data (signal)” value (HDAC6; Conc. 1.37E-08 M, t1) was 427941. The “HDAC6 activity raw data (signal)” value (HDAC6; Conc. 1.37E-08 M, t2) was 374868, the “HDAC6 activity raw data (signal)” value (HDAC6; Conc. 1.52E-09 M, t1) was 599157 and the “HDAC6 activity raw data (signal)” value (HDAC6; Conc. 1.52E-09 M, t2) was 570644. For the same molecule, the “HDAC6 activity raw data (signal)” value (HDAC6; Conc. 3.33E-06 M, t1) was 12160, the “HDAC6 activity raw data (signal)” value (HDAC6; Conc. 3.33E-06 M, t2) was 5788 and the “HDAC6 activity raw data (signal)” value (HDAC6; Conc. 3.70E-07 M, t1) was 52219. The “HDAC6 activity raw data (signal)” value (HDAC6; Conc. 3.70E-07 M, t2) was 39167, the “HDAC6 activity raw data (signal)” value (HDAC6; Conc. 4.12E-08 M, t1) was 251632 and the “HDAC6 activity raw data (signal)” value (HDAC6; Conc. 4.12E-08 M, t2) was 228170. For the same molecule, the “HDAC6 activity raw data (signal)” value (HDAC6; Conc. 4.57E-09 M, t1) was 511649, the “HDAC6 activity raw data (signal)” value (HDAC6; Conc. 4.57E-09 M, t2) was 482006 and the “HDAC6 activity raw data (signal)” value (HDAC6; Conc. 5.08E-10 M, t1) was 622162. For the same molecule, the “HDAC6 activity raw data (signal)” value (HDAC6; Conc. 5.08E-10 M, t2) was 563120, the IC50 (HDAC6; unit printed only in the axis title, read-out: HDAC6 IC50 (printed in dose-response picture)) was 0.025 µM and the “HDAC8 activity raw data (signal)” value (HDAC8; peptide conc. 1.00E-05 M, listed as des1.1.0_t1) was 10236983. The “HDAC8 activity raw data (signal)” value (HDAC8; peptide conc. 1.00E-05 M, listed as des1.1.0_t2) was 10257985, the “HDAC8 activity raw data (signal)” value (HDAC8; peptide conc. 1.11E-06 M, listed as des1.1.0_t1) was 29747792 and the “HDAC8 activity raw data (signal)” value (HDAC8; peptide conc. 1.11E-06 M, listed as des1.1.0_t2) was 28102681. The “HDAC8 activity raw data (signal)” value (HDAC8; peptide conc. 1.23E-07 M, listed as des1.1.0_t1) was 42994609, the “HDAC8 activity raw data (signal)” value (HDAC8; peptide conc. 1.23E-07 M, listed as des1.1.0_t2) was 40726222 and the “HDAC8 activity raw data (signal)” value (HDAC8; peptide conc. 1.37E-08 M, listed as des1.1.0_t1) was 47328720. The “HDAC8 activity raw data (signal)” value (HDAC8; peptide conc. 1.52E-09 M, listed as des1.1.0_t1) was 53395040, the “HDAC8 activity raw data (signal)” value (HDAC8; peptide conc. 1.52E-09 M, listed as des1.1.0_t2) was 46072556 and the “HDAC8 activity raw data (signal)” value (HDAC8; peptide conc. 3.33E-06 M, listed as des1.1.0_t1) was 22600954. The “HDAC8 activity raw data (signal)” value (HDAC8; peptide conc. 3.33E-06 M, listed as des1.1.0_t2) was 20891410, the “HDAC8 activity raw data (signal)” value (HDAC8; peptide conc. 3.70E-07 M, listed as des1.1.0_t1) was 39809686 and the “HDAC8 activity raw data (signal)” value (HDAC8; peptide conc. 3.70E-07 M, listed as des1.1.0_t2) was 39972357. The “HDAC8 activity raw data (signal)” value (HDAC8; peptide conc. 4.12E-08 M, listed as des1.1.0_t1) was 43706367, the “HDAC8 activity raw data (signal)” value (HDAC8; peptide conc. 4.12E-08 M, listed as des1.1.0_t2) was 45310513 and the “HDAC8 activity raw data (signal)” value (HDAC8; peptide conc. 4.57E-09 M, listed as des1.1.0_t1) was 46840747. For the same molecule, the “HDAC8 activity raw data (signal)” value (HDAC8; peptide conc. 4.57E-09 M, listed as des1.1.0_t2) was 46072556, the “HDAC8 activity raw data (signal)” value (HDAC8; peptide conc. 5.08E-10 M, listed as des1.1.0_t1) was 54262535 and the “HDAC8 activity raw data (signal)” value (HDAC8; peptide conc. 5.08E-10 M, listed as des1.1.0_t2) was 46072556.
